In data set [1] the target is Aurora kinase A (Homo sapiens) (UniProt O14965). Put plainly: Inhibition of human partial length Aurora-A (E122/K401) expressed in mammalian system at 1 uM by KINOMEscan analysis relative to control.
In data set [2] the target is Tyrosine-protein kinase ABL1 (Homo sapiens) (UniProt P00519). Kind of data set: Inhibition of human partial length Ab1 (S229/K512) expressed in mammalian system at 1 uM by KINOMEscan analysis relative to control.
Data set [3] can be described thus: Observed AUC (infinitive) in ICR mouse at 5 mg/kg, iv single dose measured upto 24 hrs. The class given is ADME, organism-based. As to conditions: in vivo. On the set-up: dose 5 mg/kg, time < 24 hrs, route iv.
The target in data set [4] is PI3K p110 beta/p85 alpha (Homo sapiens) (UniProt P27986+P42338). Put plainly: Inhibition of P13 kinase p110beta/p85alpha (unknown origin) at 1 uM relative to control. The class given is protein-complex assay.
Sequence of PI3K p110 beta/p85 alpha (Homo sapiens) (P27986 2-724 limits assumed): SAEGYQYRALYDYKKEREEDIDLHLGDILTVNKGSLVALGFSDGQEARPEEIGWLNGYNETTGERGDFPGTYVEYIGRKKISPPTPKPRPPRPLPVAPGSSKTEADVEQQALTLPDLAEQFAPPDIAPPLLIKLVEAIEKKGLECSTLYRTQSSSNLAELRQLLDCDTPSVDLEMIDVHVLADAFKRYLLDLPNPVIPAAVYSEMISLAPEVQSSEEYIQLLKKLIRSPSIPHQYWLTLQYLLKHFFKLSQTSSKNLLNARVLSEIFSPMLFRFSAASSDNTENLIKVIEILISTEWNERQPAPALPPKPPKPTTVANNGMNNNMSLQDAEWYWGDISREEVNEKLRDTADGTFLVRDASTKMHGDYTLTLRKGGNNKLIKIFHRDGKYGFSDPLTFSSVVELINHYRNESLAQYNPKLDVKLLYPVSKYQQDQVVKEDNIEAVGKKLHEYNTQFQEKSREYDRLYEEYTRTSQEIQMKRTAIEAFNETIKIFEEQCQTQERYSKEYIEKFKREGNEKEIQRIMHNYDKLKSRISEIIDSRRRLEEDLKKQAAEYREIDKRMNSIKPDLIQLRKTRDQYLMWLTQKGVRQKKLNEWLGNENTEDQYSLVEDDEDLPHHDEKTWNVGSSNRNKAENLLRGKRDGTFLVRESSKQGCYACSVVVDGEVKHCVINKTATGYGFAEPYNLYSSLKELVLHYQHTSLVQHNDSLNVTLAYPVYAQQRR
Sequence of PI3K p110 beta/p85 alpha (Homo sapiens) (P42338 whole entry partner): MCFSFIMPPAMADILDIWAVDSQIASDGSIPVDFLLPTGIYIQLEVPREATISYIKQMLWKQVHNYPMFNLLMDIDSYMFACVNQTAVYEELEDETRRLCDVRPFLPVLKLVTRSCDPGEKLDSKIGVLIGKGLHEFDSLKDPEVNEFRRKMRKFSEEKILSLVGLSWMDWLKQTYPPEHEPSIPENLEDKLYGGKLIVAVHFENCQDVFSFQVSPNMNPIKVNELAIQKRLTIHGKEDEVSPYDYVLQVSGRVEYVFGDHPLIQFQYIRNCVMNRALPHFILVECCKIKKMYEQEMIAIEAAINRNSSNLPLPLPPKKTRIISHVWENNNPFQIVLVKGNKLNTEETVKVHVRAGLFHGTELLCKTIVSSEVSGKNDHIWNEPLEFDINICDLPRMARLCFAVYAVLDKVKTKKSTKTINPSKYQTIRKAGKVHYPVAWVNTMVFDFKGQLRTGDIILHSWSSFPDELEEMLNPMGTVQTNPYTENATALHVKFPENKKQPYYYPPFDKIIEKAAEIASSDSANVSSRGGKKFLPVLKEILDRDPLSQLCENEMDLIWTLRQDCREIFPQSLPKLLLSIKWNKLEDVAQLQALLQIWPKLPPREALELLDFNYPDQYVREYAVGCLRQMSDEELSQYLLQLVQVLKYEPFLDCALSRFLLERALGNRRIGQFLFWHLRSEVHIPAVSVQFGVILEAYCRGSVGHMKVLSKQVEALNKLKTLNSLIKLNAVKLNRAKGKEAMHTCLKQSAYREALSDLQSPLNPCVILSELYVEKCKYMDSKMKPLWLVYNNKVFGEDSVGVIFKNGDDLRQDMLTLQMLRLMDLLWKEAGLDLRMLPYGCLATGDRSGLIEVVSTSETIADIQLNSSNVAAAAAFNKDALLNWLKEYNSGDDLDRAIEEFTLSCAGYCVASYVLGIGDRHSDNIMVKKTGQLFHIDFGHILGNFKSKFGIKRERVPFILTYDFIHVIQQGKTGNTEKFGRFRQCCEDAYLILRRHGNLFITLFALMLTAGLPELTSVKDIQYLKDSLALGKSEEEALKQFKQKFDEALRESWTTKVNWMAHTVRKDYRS
A further data set deals with Mus musculus. Put plainly: Reduction in kidney size in kidney-specific Pkd1 knockout ADPKD mouse model assessed as renal cystic index at 5 mg/kg by HE staining analysis (reference value: 23 +/- 1.3%). The class given is functional, organism-based.
In data set [5] the target is Cyclin-dependent kinase 5 (Homo sapiens, UniProt Q00535). Kind of data set: Inhibition of CDK5 (unknown origin).
Sequence of Cyclin-dependent kinase 5 (Q00535 whole entry): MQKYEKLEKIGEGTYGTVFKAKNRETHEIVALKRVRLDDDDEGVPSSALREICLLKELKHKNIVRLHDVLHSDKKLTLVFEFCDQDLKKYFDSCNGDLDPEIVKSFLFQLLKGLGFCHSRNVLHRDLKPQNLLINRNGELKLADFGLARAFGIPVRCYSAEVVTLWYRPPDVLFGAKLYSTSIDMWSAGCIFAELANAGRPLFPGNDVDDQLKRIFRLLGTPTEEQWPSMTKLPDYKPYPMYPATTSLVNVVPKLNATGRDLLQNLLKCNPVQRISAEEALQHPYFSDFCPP
In data set [6] the target is Cyclin-dependent kinase 7 (Homo sapiens, UniProt P50613). Put plainly: Inhibition of CDK7 (unknown origin) assessed as phosphorylation of ULight 4EBP1 peptide substrate measured after 2 hrs by FRET-based LANCE Ultra KinSelect assay. (In general: Time-resolved FRET reads energy transfer from a long-lived donor to a nearby acceptor.)
Sequence of Cyclin-dependent kinase 7 (P50613 whole entry): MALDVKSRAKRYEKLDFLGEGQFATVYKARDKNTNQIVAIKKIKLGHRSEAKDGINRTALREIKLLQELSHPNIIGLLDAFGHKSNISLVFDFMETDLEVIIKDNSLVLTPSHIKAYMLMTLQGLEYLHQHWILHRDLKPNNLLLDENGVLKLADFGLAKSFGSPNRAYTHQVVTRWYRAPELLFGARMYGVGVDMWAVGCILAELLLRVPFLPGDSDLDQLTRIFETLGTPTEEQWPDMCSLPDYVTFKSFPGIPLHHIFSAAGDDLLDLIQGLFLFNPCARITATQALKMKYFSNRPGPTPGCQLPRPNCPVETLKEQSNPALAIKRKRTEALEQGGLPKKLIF
Data set [7] in a line: Efflux ratio of apparent permeability in human Caco-2 cells after 120 mins by LC-MS/MS analysis. The class given is ADME, cell-based.
Data set [8] has as its target Cyclin-dependent kinase 1 (Homo sapiens, UniProt P06493). Kind of data set: Inhibition of CDK1 (unknown origin).
The target of data set [9] is Mitogen-activated protein kinase kinase kinase 5 (Homo sapiens) (UniProt Q99683). Put plainly: Inhibition of human partial length wild type ASK1 expressed in bacterial system at 1 uM by KINOMEscan analysis relative to control.
The nature of data set [10]: Apparent permeability across basolateral to apical side in human Caco-2 cells measured after 120 mins by LC-MS/MS analysis. The class given is ADME, cell-based. Background: Caco-2 cells form a polarised layer with tight junctions and transporters.
Data set [11] is described as follows: Observed MRT (infinitive) in ICR mouse at 5 mg/kg, sc single dose measured upto 24 hrs. As to conditions: in vivo. The class given is ADME, organism-based.
Data set [12] has as its target Inhibitor of nuclear factor kappa-B kinase subunit alpha (Homo sapiens) (UniProt O15111). Kind of data set: Inhibition of human full length wild type IKKalpha expressed in mammalian system at 1 uM by KINOMEscan analysis relative to control.
The target of data set [13] is Mitogen-activated protein kinase kinase kinase 9 (Homo sapiens) (UniProt P80192). Kind of data set: Inhibition of human partial length wild type MLK1 expressed in bacterial system at 1 uM by KINOMEscan analysis relative to control.
The nature of data set [14]: Bioavailability in ICR mouse at 5 mg/kg, sc single dose measured upto 24 hrs. As to conditions: in vivo. The class given is ADME, organism-based.
Data set [15] has as its target Ribosomal protein S6 kinase alpha-1 (Homo sapiens) (UniProt Q15418). Kind of data set: Inhibition of human partial length wild type Rsk1 (M1/E388) expressed in bacterial system at 1 uM by KINOMEscan analysis relative to control.

Data on one molecule can be found in ChEMBL document CHEMBL5236590, “Discovery of Novel N-(5-(Pyridin-3-yl)-1H-indazol-3-yl)benzamide Derivatives as Potent Cyclin-Dependent Kinase 7 Inhibitors for the Treatment of Autosomal Dominant Polycystic Kidney Disease” (J Med Chem, 2022).

The source made the active and inactive calls. No cut-off for these calls is given here.

By inhibition is commonly meant the relative decrease from the control value, in per cent. Low readings indicate a weak effect, high ones a strong effect. Broadly, the AUC(0-inf) is total exposure, with the tail of the curve extrapolated. A lower AUC(0-inf) goes with low exposure. Usually IC50 stands for the concentration at which inhibition is half-maximal. Usually efflux ratio stands for a quotient of directional permeabilities that is used to spot active efflux. By Papp B→A is commonly meant how fast a substance crosses the layer from the basolateral side. One may read the MRT inf as the average time that molecules of a dose stay in the body. Usually bioavailability stands for dose-corrected exposure relative to a reference, in per cent.

Sequence of Cyclin-dependent kinase 1 (P06493 whole entry): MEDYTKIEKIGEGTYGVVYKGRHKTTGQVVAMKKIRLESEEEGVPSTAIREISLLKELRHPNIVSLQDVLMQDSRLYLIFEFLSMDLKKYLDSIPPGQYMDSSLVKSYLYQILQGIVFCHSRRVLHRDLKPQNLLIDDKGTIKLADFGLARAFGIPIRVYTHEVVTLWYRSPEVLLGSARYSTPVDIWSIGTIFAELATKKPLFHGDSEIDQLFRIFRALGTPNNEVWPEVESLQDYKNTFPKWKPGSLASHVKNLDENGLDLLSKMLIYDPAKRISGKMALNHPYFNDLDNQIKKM
Sequence of Aurora kinase A (Homo sapiens) (O14965 whole entry): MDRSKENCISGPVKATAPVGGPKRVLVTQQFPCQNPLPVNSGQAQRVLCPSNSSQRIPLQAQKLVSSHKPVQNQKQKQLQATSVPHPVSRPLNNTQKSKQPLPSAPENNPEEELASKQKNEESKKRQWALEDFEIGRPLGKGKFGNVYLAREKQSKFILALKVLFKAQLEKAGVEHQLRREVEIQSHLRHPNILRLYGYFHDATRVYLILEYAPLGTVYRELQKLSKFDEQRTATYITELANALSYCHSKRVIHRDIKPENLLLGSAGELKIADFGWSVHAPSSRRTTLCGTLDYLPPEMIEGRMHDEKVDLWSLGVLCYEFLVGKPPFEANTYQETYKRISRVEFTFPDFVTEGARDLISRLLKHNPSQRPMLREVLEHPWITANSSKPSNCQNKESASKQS
Sequence of Tyrosine-protein kinase ABL1 (Homo sapiens) (P00519 whole entry): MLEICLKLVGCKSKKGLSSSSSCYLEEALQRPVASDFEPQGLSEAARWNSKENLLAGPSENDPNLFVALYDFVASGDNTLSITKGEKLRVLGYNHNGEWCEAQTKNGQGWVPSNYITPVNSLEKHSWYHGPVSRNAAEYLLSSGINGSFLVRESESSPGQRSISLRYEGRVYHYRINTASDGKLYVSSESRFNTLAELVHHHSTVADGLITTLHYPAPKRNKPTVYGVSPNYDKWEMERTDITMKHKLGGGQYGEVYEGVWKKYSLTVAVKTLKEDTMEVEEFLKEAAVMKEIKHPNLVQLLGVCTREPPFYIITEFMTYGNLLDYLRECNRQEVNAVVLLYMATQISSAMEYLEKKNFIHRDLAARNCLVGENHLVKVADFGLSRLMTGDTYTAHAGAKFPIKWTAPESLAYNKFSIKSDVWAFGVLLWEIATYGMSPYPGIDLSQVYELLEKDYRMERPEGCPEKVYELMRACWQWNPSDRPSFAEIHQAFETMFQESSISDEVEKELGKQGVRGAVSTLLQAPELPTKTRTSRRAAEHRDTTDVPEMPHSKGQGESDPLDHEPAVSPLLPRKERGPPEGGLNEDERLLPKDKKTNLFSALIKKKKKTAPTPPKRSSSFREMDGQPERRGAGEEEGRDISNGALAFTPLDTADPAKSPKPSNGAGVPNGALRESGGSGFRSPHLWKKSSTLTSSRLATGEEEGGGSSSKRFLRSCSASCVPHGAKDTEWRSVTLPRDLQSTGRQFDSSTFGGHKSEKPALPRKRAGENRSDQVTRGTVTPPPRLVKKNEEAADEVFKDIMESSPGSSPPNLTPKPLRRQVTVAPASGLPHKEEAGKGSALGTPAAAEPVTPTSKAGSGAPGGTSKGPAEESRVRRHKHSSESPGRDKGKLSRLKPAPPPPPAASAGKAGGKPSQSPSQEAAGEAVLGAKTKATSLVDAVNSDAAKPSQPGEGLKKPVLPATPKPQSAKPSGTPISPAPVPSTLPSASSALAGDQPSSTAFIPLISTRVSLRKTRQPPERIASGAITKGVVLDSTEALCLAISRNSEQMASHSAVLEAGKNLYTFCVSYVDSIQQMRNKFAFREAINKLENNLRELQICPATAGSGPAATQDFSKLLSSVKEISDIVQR
Sequence of Ribosomal protein S6 kinase alpha-1 (Homo sapiens) (Q15418 whole entry): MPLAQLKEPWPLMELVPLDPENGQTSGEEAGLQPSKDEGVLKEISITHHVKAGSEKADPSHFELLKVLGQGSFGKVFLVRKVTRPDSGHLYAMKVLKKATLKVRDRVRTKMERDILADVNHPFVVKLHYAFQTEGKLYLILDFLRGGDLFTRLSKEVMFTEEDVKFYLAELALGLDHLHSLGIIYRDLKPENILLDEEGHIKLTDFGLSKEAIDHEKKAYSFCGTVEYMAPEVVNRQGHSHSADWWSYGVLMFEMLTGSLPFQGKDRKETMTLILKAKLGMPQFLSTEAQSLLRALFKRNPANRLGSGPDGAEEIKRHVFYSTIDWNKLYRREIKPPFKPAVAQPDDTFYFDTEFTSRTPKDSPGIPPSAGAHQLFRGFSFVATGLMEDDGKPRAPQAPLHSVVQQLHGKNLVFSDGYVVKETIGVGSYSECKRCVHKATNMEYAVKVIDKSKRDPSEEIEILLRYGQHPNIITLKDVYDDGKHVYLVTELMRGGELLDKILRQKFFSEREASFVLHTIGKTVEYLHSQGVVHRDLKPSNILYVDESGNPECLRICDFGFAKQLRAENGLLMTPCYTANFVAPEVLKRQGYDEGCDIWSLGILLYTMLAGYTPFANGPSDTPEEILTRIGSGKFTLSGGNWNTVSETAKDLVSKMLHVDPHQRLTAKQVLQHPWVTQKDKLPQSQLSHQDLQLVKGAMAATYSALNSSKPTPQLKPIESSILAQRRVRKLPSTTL

As to `C=CC(=O)Nc1ccc(C(=O)Nc2n[nH]c3ccc(-c4cncc(NC[C@@H](O)c5ccccc5)c4)cc23)cc1`, the inhibition in data set [1] is 68%; in data set [2], under 50%; in data set [4], under 50%; in data set [9], under 50%; in data set [12] it was under 50%; in [13] it was under 50%. The molecule also gave an inhibition in [15] of under 50%. In data set [3], this molecule had an area under the curve AUC(0-inf) of 31700 ng·h/mL. The outcome in the data set on Mus musculus was Active. The IC50 in data set [5] is over 10 µM; in data set [6], 0.004 µM; in data set [8] it was 3.37 µM. For the same molecule, the efflux ratio at 2 h in data set [7] is over 48. Further, the Papp B→A at 2 h in data set [10] was 6 ×10⁻⁶ cm/s. In addition, the MRT inf in data set [11] worked out at 5 h. Also, the bioavailability in data set [14] came to 64.2%.
